# According to patent US20190330224A1, “ACC INHIBITORS AND USES THEREOF” (Gilead Apollo, LLC, priority 2015, published 2019):
# Assays:
# C. albicans ATCC 90028 = test: Anti-Fungal Activity Assay (broth microtiter MIC), C. albicans; format: cell-based, Candida albicans; conditions: Candida albicans, ATCC90028, 48 h, 3 replicates; MIC recorded at 48 h; read-out: MIC C. albicans ATCC 90028
# Summary of the method: (§1)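 Susceptibility testing used direct colony suspensions in RPMI 1640+MOPS from Sabouraud dextrose agar grown at 35° C. Endpoints were visual MICs at 48 h under CLSI M27-A3 microtiter conditions, plus a 24 h reading for soraphen.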
# [1] = tested on: C. parapsilosis ATCC 22019; test: Anti-Fungal Activity Assay (broth microtiter MIC), C. parapsilosis; format: cell-based, Candida parapsilosis; conditions: Lodderomyces parapsilosis, ATCC22019, 48 h, 3 replicates; MIC recorded at 48 h; read-out: MIC C. parapsilosis ATCC 22019
# Summary of the method: as §1
# Human ACC2 = Human ACC2 (Homo sapiens, UniProt O00763); test: In vitro ACC2 inhibition assay (ADP-Glo), human ACC2; format: biochemical; conditions: 5 nM ACC2, 20 μM ATP, 20 μM acetyl-CoA
# Chain of Human ACC2 (O00763 whole entry): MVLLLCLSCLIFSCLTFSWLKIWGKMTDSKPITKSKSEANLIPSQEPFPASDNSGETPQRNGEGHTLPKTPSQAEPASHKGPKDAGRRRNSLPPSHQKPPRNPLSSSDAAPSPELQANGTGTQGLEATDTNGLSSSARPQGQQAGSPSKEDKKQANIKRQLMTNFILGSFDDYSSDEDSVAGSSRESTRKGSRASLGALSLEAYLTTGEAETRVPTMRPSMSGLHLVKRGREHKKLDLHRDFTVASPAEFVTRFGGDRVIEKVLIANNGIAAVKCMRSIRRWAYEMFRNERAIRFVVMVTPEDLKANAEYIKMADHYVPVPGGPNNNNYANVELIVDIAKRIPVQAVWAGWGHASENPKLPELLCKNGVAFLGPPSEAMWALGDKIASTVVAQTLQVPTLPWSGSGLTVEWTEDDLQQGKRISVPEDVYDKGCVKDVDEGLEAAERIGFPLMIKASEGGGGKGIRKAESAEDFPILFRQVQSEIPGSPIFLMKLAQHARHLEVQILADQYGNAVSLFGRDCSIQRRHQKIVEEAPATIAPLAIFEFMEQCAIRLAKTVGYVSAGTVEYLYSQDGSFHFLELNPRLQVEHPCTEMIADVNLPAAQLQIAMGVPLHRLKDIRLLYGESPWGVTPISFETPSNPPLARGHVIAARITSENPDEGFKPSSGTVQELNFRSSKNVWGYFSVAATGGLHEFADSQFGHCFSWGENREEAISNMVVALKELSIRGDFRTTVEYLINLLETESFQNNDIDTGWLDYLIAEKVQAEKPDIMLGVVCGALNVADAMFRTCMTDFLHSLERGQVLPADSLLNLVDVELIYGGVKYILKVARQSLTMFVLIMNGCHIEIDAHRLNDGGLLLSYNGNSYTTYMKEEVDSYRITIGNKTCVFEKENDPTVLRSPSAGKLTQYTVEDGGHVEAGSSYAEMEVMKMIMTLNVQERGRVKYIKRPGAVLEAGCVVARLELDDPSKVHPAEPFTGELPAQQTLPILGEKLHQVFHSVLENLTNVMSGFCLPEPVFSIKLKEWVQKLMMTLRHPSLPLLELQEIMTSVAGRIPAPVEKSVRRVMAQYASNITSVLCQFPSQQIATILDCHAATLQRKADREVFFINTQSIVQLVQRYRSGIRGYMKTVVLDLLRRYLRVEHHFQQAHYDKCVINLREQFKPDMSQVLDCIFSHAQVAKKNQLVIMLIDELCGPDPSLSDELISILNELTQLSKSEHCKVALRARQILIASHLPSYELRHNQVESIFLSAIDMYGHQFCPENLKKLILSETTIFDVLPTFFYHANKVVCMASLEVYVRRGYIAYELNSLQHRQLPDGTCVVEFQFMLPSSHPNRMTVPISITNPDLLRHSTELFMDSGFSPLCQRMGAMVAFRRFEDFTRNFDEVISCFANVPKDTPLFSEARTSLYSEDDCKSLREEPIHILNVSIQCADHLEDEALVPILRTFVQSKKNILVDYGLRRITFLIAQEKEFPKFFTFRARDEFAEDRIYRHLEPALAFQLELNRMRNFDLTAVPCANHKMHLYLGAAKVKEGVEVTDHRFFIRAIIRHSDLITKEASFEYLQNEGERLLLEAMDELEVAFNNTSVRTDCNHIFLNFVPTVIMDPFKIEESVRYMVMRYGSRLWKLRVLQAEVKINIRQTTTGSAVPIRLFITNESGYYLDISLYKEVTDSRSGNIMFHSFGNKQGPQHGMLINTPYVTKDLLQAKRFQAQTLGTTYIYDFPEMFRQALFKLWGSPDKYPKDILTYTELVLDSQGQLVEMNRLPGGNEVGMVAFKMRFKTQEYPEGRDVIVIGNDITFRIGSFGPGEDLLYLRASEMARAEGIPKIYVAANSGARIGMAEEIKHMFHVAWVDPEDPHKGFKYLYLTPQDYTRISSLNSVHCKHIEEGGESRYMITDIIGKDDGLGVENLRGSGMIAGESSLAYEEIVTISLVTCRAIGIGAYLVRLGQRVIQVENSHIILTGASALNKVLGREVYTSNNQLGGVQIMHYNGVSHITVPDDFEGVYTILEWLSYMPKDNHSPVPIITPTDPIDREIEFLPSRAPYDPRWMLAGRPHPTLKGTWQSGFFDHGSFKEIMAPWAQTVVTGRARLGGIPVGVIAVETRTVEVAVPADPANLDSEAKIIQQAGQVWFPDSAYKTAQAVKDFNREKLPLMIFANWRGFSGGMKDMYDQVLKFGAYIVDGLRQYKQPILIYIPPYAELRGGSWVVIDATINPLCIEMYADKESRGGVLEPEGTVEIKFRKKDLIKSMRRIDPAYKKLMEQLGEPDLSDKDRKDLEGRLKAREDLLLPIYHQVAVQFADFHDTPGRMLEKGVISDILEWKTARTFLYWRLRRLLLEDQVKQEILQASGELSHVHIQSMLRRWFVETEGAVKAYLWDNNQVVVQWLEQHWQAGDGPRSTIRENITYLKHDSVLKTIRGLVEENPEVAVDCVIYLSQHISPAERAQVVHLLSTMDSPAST
# Fungal ACC2 = Fungal ACC2 (UniProt Q00955); conditions: read-out: Fungal ACC2 (IC50, in vitro ACC2 inhibition)
# Chain of Fungal ACC2 (Q00955 whole entry): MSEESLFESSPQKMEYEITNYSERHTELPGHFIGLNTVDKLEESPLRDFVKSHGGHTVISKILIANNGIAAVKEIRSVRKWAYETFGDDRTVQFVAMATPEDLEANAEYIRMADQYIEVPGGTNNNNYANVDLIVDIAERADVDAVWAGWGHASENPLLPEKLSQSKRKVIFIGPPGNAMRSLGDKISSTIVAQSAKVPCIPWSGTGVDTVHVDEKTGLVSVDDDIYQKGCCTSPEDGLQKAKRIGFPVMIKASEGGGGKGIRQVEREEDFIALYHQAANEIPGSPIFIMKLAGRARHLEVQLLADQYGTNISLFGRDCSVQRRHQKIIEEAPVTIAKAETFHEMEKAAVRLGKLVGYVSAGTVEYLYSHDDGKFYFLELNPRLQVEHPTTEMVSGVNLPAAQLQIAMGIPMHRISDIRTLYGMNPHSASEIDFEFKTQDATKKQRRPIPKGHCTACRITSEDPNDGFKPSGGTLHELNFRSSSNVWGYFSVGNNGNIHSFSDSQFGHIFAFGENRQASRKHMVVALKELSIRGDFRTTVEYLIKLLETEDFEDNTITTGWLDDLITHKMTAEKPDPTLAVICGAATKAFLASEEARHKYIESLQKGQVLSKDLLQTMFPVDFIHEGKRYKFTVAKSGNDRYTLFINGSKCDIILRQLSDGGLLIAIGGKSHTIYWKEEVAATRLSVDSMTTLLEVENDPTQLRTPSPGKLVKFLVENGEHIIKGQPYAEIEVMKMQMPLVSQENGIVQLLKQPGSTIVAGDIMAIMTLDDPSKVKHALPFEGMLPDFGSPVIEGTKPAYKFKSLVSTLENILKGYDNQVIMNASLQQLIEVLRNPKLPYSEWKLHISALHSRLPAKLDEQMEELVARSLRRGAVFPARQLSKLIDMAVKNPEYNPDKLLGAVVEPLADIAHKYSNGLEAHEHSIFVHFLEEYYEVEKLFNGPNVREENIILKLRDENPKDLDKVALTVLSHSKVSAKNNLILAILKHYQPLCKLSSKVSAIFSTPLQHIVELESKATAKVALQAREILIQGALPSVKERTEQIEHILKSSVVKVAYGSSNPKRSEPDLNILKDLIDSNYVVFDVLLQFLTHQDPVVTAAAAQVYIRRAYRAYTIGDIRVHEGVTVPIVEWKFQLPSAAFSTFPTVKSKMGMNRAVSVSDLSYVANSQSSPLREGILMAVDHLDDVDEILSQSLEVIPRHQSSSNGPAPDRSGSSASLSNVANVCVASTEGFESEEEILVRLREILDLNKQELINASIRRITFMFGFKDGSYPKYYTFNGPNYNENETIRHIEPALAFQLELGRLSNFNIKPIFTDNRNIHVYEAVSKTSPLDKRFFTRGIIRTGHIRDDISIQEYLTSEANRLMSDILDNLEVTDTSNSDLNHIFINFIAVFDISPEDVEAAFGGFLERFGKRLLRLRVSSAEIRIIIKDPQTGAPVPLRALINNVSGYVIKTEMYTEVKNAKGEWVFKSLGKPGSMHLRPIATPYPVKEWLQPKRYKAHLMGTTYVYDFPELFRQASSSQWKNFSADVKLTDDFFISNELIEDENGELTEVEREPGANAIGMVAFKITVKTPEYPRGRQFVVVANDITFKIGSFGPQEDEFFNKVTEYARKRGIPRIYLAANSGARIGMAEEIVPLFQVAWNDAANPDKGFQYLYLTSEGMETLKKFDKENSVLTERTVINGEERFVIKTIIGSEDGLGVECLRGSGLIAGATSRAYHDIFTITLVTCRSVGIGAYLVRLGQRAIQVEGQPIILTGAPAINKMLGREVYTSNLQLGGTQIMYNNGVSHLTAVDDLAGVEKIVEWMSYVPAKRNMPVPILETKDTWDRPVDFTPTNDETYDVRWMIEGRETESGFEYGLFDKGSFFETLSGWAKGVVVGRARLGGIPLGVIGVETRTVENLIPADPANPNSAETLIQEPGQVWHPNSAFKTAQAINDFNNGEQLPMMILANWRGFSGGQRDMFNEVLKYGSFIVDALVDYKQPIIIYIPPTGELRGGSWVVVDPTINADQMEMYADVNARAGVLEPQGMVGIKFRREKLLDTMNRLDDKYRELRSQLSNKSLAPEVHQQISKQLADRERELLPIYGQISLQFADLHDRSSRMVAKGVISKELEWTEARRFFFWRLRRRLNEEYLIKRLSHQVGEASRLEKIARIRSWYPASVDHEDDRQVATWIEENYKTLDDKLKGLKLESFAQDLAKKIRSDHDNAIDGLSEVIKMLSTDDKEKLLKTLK
# C. krusei ATCC 6258 = test: Anti-Fungal Activity Assay (broth microtiter MIC), C. krusei; format: cell-based, Candida krusei; conditions: Pichia kudriavzevii, ATCC6258, 48 h, 3 replicates; MIC recorded at 48 h; read-out: MIC C. krusei ATCC 6258
# Summary of the method: as §1
SMILES,MIC (C. albicans ATCC 90028),MIC [1],IC50 (Human ACC2),IC50 (Fungal ACC2),MIC (C. krusei ATCC 6258)
"COc1ccc(F)cc1[C@H](Cn1c(=O)n([C@H]2CCN(C)C2=O)c(=O)c2c(C)c(-n3nccn3)sc21)OCCCO [Compound I-154, 1-((R)-2-(5-fluoro-2-methoxyphenyl)-2-(3-hydroxy-propoxy)ethyl)-5-methyl-3-((S)-1-methyl-2-oxopyrrolidin-3-yl)-6-(2H-1,2,3-triazol-2-yl)thieno[2,3-d]pyrimidine-2,4(1H,3H)-dione]",2.1 to 4 µg/mL,2.1 to 4 µg/mL,2 to 10 nM,0.7 to 2 nM,0.25 to 1 µg/mL
"COc1ccc(F)cc1[C@H](Cn1c(=O)n([C@@H]2CCN(C)C2=O)c(=O)c2c(C)c(-n3nccn3)sc21)OCCCO [Compound I-155, 1-((R)-2-(5-fluoro-2-methoxyphenyl)-2-(3-hydroxypropoxy)ethyl)-5-methyl-3-((R)-1-methyl-2-oxopyrrolidin-3-yl)-6-(2H-1,2,3-triazol-2-yl)thieno[2,3-d]pyrimidine-2,4(1H,3H)-dione]",2.1 to 4 µg/mL,2.1 to 4 µg/mL,2 to 10 nM,0.7 to 2 nM,2.1 to 4 µg/mL
"COc1ccc(F)cc1[C@H](COc1nc2sc(-n3nccn3)c(C)c2c(=O)n1[C@H]1CCN(C)C1=O)OCCCO [Compound I-156, 2-((R)-2-(5-fluoro-2-methoxyphenyl)-2-(3-hydroxy-propoxy)ethoxy)-5-methyl-3-((S)-1-methyl-2-oxopyrrolidin-3-yl)-6-(2H-1,2,3-triazol-2-yl)thieno[2,3-d]pyrimidin-4(3H)-one]",2.1 to 4 µg/mL,2.1 to 4 µg/mL,> 1000 nM,100 to 1000 nM,2.1 to 4 µg/mL
"COCCO[C@@H](Cn1c(=O)n([C@H]2CCN(C)C2=O)c(=O)c2c(C)c(-n3nccn3)sc21)c1cc(F)ccc1O [Compound I-157, 1-((R)-2-(5-fluoro-2-hydroxyphenyl)-2-(2-methoxyethoxy)ethyl)-5-methyl-3-((S)-1-methyl-2-oxopyrrolidin-3-yl)-6-(2H-1,2,3-triazol-2-yl)thieno[2,3-d]pyrimidine-2,4(1H,3H)-dione]",2.1 to 4 µg/mL,2.1 to 4 µg/mL,100 to 1000 nM,2 to 10 nM,2.1 to 4 µg/mL
"COCCO[C@@H](Cn1c(=O)n([C@@H]2CCN(C)C2=O)c(=O)c2c(C)c(-n3nccn3)sc21)c1cc(F)ccc1O [Compound I-158, 1-((R)-2-(5-fluoro-2-hydroxyphenyl)-2-(2-methoxyethoxy)ethyl)-5-methyl-3-((R)-1-methyl-2-oxopyrrolidin-3-yl)-6-(2H-1,2,3-triazol-2-yl)thieno[2,3-d]pyrimidine-2,4(1H,3H)-dione]",2.1 to 4 µg/mL,2.1 to 4 µg/mL,100 to 1000 nM,2 to 10 nM,2.1 to 4 µg/mL
"COc1ccc(F)cc1C(=O)Cn1c(=O)n([C@H]2CCN(C)C2=O)c(=O)c2c(C)c(-n3nccn3)sc21 [Compound I-161, (S)-1-(2-(5-fluoro-2-methoxyphenyl)-2-oxoethyl)-5-methyl-3-(1-methyl-2-oxopyrrolidin-3-yl)-6-(2H-1,2,3-triazol-2-yl)thieno[2,3-d]pyrimidine-2,4(1H,3H)-dione]",2.1 to 4 µg/mL,2.1 to 4 µg/mL,> 1000 nM,100 to 1000 nM,2.1 to 4 µg/mL
"COc1ccccc1C(=O)Cn1c(=O)n([C@H]2CCN(C)C2=O)c(=O)c2c(C)c(-n3nccn3)sc21 [Compound I-163, (S)-1-(2-(2-methoxyphenyl)-2-oxoethyl)-5-methyl-3-(1-methyl-2-oxopyrrolidin-3-yl)-6-(2H-1,2,3-triazol-2-yl)thieno[2,3-d]pyrimidine-2,4(1H,3H)-dione]",2.1 to 4 µg/mL,2.1 to 4 µg/mL,> 1000 nM,100 to 1000 nM,2.1 to 4 µg/mL
"COc1ccccc1[C@@H](O)Cn1c(=O)n([C@H]2CCN(C)C2=O)c(=O)c2c(C)c(-n3nccn3)sc21 [Compound I-165, 1-((R)-2-hydroxy-2-(2-methoxyphenyl)ethyl)-5-methyl-3-((S)-1-methyl-2-oxopyrrolidin-3-yl)-6-(2H-1,2,3-triazol-2-yl)thieno[2,3-d]pyrimidine-2,4(1H,3H)-dione]",2.1 to 4 µg/mL,2.1 to 4 µg/mL,10 to 100 nM,2 to 10 nM,2.1 to 4 µg/mL
"COc1ccccc1C(=O)Cn1c(=O)n([C@@H]2CCN(C)C2=O)c(=O)c2c(C)c(-n3nccn3)sc21 [Compound I-167, (R)-1-(2-(2-methoxyphenyl)-2-oxoethyl)-5-methyl-3-(1-methyl-2-oxopyrrolidin-3-yl)-6-(2H-1,2,3-triazol-2-yl)thieno[2,3-d]pyrimidine-2,4(1H,3H)-dione]",2.1 to 4 µg/mL,2.1 to 4 µg/mL,100 to 1000 nM,10 to 100 nM,2.1 to 4 µg/mL
